In brackets after ≈: the same amount, converted by molar mass.
Columns and labels:
[1] = tested on: Saccharomyces cerevisiae (MY 2140); assay: microbroth dilution assay (MIC/MFC), Saccharomyces cerevisiae (MY 2140); format: cell-based; details: Saccharomyces cerevisiae, 24 h
Protocol: (§1) In the microbroth dilution assay, microorganisms were selected by streaking a yeast culture on Sabouraud dextrose agar (SDA) incubating for 24-48 hours at 35°-37° C., thereafter selected 3 to 5 characteristic colonies and transferring to a fresh plate and incubating under similar conditions. From the regrowth, 3 to 5 colonies were selected and suspended in. 10 milliliters of YM broth (Dffco) and incubated for 4 hours at 35°-37° C. shaking at 225 rpm. The 4 hour broth cultures were adjusted optically to 86% transmission resulting in a concentration of 1-5×10^6 cfu/ml which was further diluted 1:100 in YNBD (yeast nitrogen base with 1% dextrose) to obtain a concentration of 1-5×10^4 cfu/ml for use as inocula.
(§2) The test compound, Compound I, was prepared as a stock solution of 128 μg/ml in 20% methanol and 75 μl of said solution delivered to each well in column 1 of a 96-well, U-bottomed microtiter plate. The compounds in column 1 were then serially diluted two-fold to yield concentrations from 32 μg/ml to 0.15 μg/ml.
as §2, with “Amphotericin, the control” for “The test”, “compound,” for “compound, Compound I,”, “512” for “128”, “10% DMSO” for “20% methanol”, “128” for “32”, “0.6” for “0.15”
(§3) The plates containing the diluted compounds were then inoculated with 75 μl/well of the appropriate microorganism and incubated for 48 hours at 35°-37° C. with MIC (minimum inhibitory concentration) determinations carried out after 24 hours of incubation. Growth and sterility controls for each organism and sterility checks for the compounds also were carded out.
(§4) After recording MICs at 24 hours, the microtiter plates were shaken gently to resuspend the cells. A 1.5 μl sample was transferred from each well of the 96-well microtiter plate to a single reservoir inoculum plate containing SDA. The inoculated SDA and corresponding microtiter plates were incubated for 24 hours at 35°-37° C. For Cryptococus neoformans, SDA plates were inoculated at 48 hours after recording MICs and incubated 48 hours before reading the MFC. MFC is the lowest concentration of compound at which either no growth or growth of ≤4 colonies occur.

C. albicans (CLY539) = assay: microbroth dilution assay (MIC/MFC), C. albicans (CLY539); format: cell-based; details: Candida albicans, 24 h
Protocol: as §1, §2
as §2, with “Amphotericin, the control” for “The test”, “compound,” for “compound, Compound I,”, “512” for “128”, “10% DMSO” for “20% methanol”, “128” for “32”, “0.6” for “0.15”
as §3, §4

[2] = tested on: C. guillermondii (MY 1019); assay: microbroth dilution assay (MIC/MFC), C. guillermondii (MY 1019); format: cell-based; details: 24 h
Protocol: as §1, §2
as §2, with “Amphotericin, the control” for “The test”, “compound,” for “compound, Compound I,”, “512” for “128”, “10% DMSO” for “20% methanol”, “128” for “32”, “0.6” for “0.15”
as §3, §4

[3] = tested on: Cryptococcus neoformans (MY 2062); assay: microbroth dilution assay (MIC), Cryptococcus neoformans (MY 2062); format: cell-based; details: Cryptococcus neoformans, 24 h, read-out: Minimum Inhibitory Concentration (MIC)
Protocol: as §1
as §2, with “μg/ml. […]” for “μg/ml.”
(§5) After recording MICs at 24 hours, the microtiter plates were shaken gently to resuspend the cells. […] For Cryptococus neoformans, SDA plates were inoculated at 48 hours after recording MICs and incubated 48 hours before reading the MFC. […]

A. fumigatus (5668) = assay: microbroth dilution assay (MIC), A. fumigatus (5668); format: cell-based; details: Aspergillus fumigatus, 24 h, read-out: Minimum Inhibitory Concentration (MIC)
Protocol: as §1
as §2, with “μg/ml. […]” for “μg/ml.”
as §5

[4] = tested on: C. pseudotropicalis (MY 2099); assay: microbroth dilution assay (MIC/MFC), C. pseudotropicalis (MY 2099); format: cell-based, Candida pseudotropicalis; details: Kluyveromyces marxianus, 24 h
Protocol: as §1, §2
as §2, with “Amphotericin, the control” for “The test”, “compound,” for “compound, Compound I,”, “512” for “128”, “10% DMSO” for “20% methanol”, “128” for “32”, “0.6” for “0.15”
as §3, §4

C. albicans (CA2) = assay: microbroth dilution assay (MIC/MFC), C. albicans (CA2); format: cell-based; details: Candida albicans, 24 h
Protocol: as §1, §2
as §2, with “Amphotericin, the control” for “The test”, “compound,” for “compound, Compound I,”, “512” for “128”, “10% DMSO” for “20% methanol”, “128” for “32”, “0.6” for “0.15”
as §3, §4

[5] = tested on: C. parapsilosis (MY 1010); assay: microbroth dilution assay (MIC/MFC), C. parapsilosis (MY 1010); format: cell-based; details: Lodderomyces parapsilosis, 24 h
Protocol: as §1, §2
as §2, with “Amphotericin, the control” for “The test”, “compound,” for “compound, Compound I,”, “512” for “128”, “10% DMSO” for “20% methanol”, “128” for “32”, “0.6” for “0.15”
as §3, §4

[6] = tested on: Aspergillus fumigatus (MF 4839); assay: microbroth dilution assay (MIC), Aspergillus fumigatus (MF 4839); format: cell-based; details: Aspergillus fumigatus, 24 h, read-out: Minimum Inhibitory Concentration (MIC)
Protocol: as §1
as §2, with “μg/ml. […]” for “μg/ml.”
as §5

C. tropicalis (MY1124) = assay: microbroth dilution assay (MIC/MFC), C. tropicalis (MY1124); format: cell-based; details: Candida tropicalis, 24 h
Protocol: as §1, §2
as §2, with “Amphotericin, the control” for “The test”, “compound,” for “compound, Compound I,”, “512” for “128”, “10% DMSO” for “20% methanol”, “128” for “32”, “0.6” for “0.15”
as §3, §4

S. cerevisiae (MY 2141) = assay: microbroth dilution assay (MIC/MFC), S. cerevisiae (MY 2141); format: cell-based; details: Saccharomyces cerevisiae
Protocol: as §1
as §2, with “μg/ml. […]” for “μg/ml.”
as §5

C. topicalis (MY1012) = assay: microbroth dilution assay (MIC/MFC), C. topicalis (MY1012); format: cell-based; details: 24 h
Protocol: as §1, §2
as §2, with “Amphotericin, the control” for “The test”, “compound,” for “compound, Compound I,”, “512” for “128”, “10% DMSO” for “20% methanol”, “128” for “32”, “0.6” for “0.15”
as §3, §4

[7] = tested on: Candida albicans (MY 1055); assay: microbroth dilution assay (MIC/MFC), Candida albicans (MY 1055); format: cell-based; details: Candida albicans, 24 h
Protocol: as §1, §2
as §2, with “Amphotericin, the control” for “The test”, “compound,” for “compound, Compound I,”, “512” for “128”, “10% DMSO” for “20% methanol”, “128” for “32”, “0.6” for “0.15”
as §3, §4

C. glabrata (MY1381) = assay: microbroth dilution assay (MIC/MFC), C. glabrata (MY1381); format: cell-based; details: Nakaseomyces glabratus, 24 h
Protocol: as §1, §2
as §2, with “Amphotericin, the control” for “The test”, “compound,” for “compound, Compound I,”, “512” for “128”, “10% DMSO” for “20% methanol”, “128” for “32”, “0.6” for “0.15”
as §3, §4

[8] = read-out: Minimum Fungicidal Concentration (MFC)
[9] = read-out: Minimum Inhibitory Concentration (MIC)

C[C@@H]1[C@H](O)[C@@H](C)/C=C/C=C/C=C/C=C/C=C/C=C/C=C/[C@H](O[C@@H]2O[C@H](C)[C@@H](O)[C@H](N)[C@@H]2O)C[C@@H]2O[C@](O)(C[C@@H](O)C[C@@H](O)[C@H](O)CC[C@@H](O)C[C@@H](O)CC(=O)O[C@H]1C)C[C@H](O)[C@H]2C(=O)O [Amphotericin B] gave an MFC [1, 8] of 1 µg/mL (≈ 1.08 µM), an MIC [1, 9] of 1 µg/mL (≈ 1.08 µM) and an MFC (C. albicans (CLY539); [8]) of 2 µg/mL (≈ 2.16 µM). It also gave an MIC (C. albicans (CLY539); [9]) of 1 µg/mL (≈ 1.08 µM), an MFC [2, 8] of 2 µg/mL (≈ 2.16 µM) and an MIC [2, 9] of 1 µg/mL (≈ 1.08 µM). It also gave an MIC [3] of 1 µg/mL (≈ 1.08 µM), an MIC (A. fumigatus (5668)) of 2 µg/mL (≈ 2.16 µM) and an MFC [4, 8] of 2 µg/mL (≈ 2.16 µM). For the same compound, the MIC [4, 9] was 2 µg/mL (≈ 2.16 µM), the MFC (C. albicans (CA2); [8]) was 1 µg/mL (≈ 1.08 µM) and the MIC (C. albicans (CA2); [9]) was 1 µg/mL (≈ 1.08 µM). It also gave an MFC [5, 8] of 1 µg/mL (≈ 1.08 µM), an MIC [5, 9] of 1 µg/mL (≈ 1.08 µM) and an MIC [6] of 2 µg/mL (≈ 2.16 µM). It also gave an MFC (C. tropicalis (MY1124); [8]) of 2 µg/mL (≈ 2.16 µM), an MIC (C. tropicalis (MY1124); [9]) of 2 µg/mL (≈ 2.16 µM) and an MIC (S. cerevisiae (MY 2141); 24 h, 35°-37° C., read-out: Minimum Inhibitory Concentration (MIC)) of 1 µg/mL (≈ 1.08 µM). It also gave an MFC (S. cerevisiae (MY 2141); no growth or ≤4 colonies on SDA after 24 h, read-out: Minimum Fungicidal Concentration (MFC)) of 1 µg/mL (≈ 1.08 µM), an MFC (C. topicalis (MY1012); [8]) of 16 µg/mL (≈ 17.3 µM) and an MIC (C. topicalis (MY1012); [9]) of 16 µg/mL (≈ 17.3 µM). For the same compound, the MFC [7, 8] was 1 µg/mL (≈ 1.08 µM), the MIC [7, 9] was 1 µg/mL (≈ 1.08 µM) and the MFC (C. glabrata (MY1381); [8]) was 2 µg/mL (≈ 2.16 µM). The MIC (C. glabrata (MY1381); [9]) was 2 µg/mL (≈ 2.16 µM).

From patent US5686637A, “Antifungal agent” (Merck & Co., Inc., priority 1995, dated 1997)
